From ChEMBL document CHEMBL3580542, “Inhibitors of the PD-1/PD-L1 Pathway Can Mobilize the Immune System: An Innovative Potential Therapy for Cancer and Chronic Infections” (ACS Med Chem Lett, 2015)

Molecular target: Programmed cell death 1 ligand 1 (Homo sapiens, UniProt Q9NZQ7)
Test: Binding affinity to His-tagged PD-L1 (unknown origin) assessed as inhibition of interaction with PD1 preincubated for 15 mins followed by PD1 addition measured after 15 mins by HTRF assay

Sequence of Programmed cell death 1 ligand 1 (Q9NZQ7 whole entry): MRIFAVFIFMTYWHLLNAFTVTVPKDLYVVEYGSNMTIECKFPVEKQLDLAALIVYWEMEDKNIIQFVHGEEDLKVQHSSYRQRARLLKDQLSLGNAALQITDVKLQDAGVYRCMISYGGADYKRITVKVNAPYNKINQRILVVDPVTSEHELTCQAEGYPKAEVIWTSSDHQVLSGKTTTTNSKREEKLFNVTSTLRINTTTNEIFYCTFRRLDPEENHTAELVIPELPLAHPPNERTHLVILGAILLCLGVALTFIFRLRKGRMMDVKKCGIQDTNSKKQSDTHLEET

SMILES | IC50
Cc1cc(CN2CCC(C(=O)NCCO)CC2)ccc1OCc1cccc(-c2ccccc2)c1C | 110 nM
COc1cc(OCc2cccc(-c3ccccc3)c2C#N)cc(OC)c1CN1CCCC[C@H]1C(=O)O | 6 nM
